The values that follow come from patent US12109266B2, “Modulating gabarap to modulate immunogenic cell death” (Dana-Farber Cancer Institute, Inc., priority 2020, dated 2024).

Assay [1] relates to 5TGM1 MM cells. Kind of assay: Phagocytosis assay of MM cells by JAWSII DCs. It counts as cell-based, murine. On the procedure:
Mo-DCs were generated from CD14+ peripheral blood monocytes were positively selected using magnetic beads (Miltenyi Biotec) and cultured for 6 days in mo-DC differentiation medium containing GM-CSF and IL-4 (130-094-812; Miltenyi Biotec) to generate Mo-DCs. AMO1, KMS11 and H929 cells lines, as well as patient MM cells, were stained with CellTrace™ Far Red (ThermoFisher Scientific), cultured with or without BTZ (for 16 h), and then incubated in 48-well plates for 4 h at 1:1 ratio with CellTrace™ CFSE stained Mo-DCs. Cells were then collected, and phagocytosis analysis was performed by flow cytometry and confocal microscopy. Analagous phagocytosis experiments was performed using 5TGM1 murine MM and immature murine DC line JAWSII.
Collected cells were analyzed using the BD LRSFortessa™ X-20 flow cytometer. Mo-DCs that engulfed MM cells were CFSE and FAR-RED double positive. Fold increase in percentage of double positive DCs after co-culture with BTZ treated vs untreated MM cells was compared. […]
(§1) Flow cytometry-based assay: Collected cells were analyzed using the BD LRSFortessa X-20 flow cytometer. […]
Confocal microscopy-based assay: 5TGM1 cells (15000) were cytospun for 7 min at 300 rpm, fixed in 4% paraformaldehyde for 20 min at RT, and washed three times with 1% FBS in PBS. […] Slides were examined using Yokogawa Spinning Disk Confocal/TIRF System, and analyzed with ImageJ software.

Assay [2] deals with patient-derived MM cells (pdMM). Kind of assay: Phagocytosis assay of patient-derived MM cells by DCs. It counts as cell-based, human. The settings on record: BTZ 5 and 10 nM; 4 h co-culture.
From the text: Multiple myeloma patients BM aspirates and normal donor peripheral blood mononuclear cells (PBMCs) were obtained after written informed consent, in accordance with the declaration of Helsinki and under the approval by the Institutional Review Board of the Dana-Farber Cancer Institute. BMMCs and PBMCs were separated by Ficoll-Paque PLUS (GE Healthcare). Multiple myeloma cells from BMMCs were enriched by CD138-positive selection using magnetic microbeads (Miltenyi Biotec).
Mo-DCs were generated from CD14+ peripheral blood monocytes from healthy donors, positively selected using magnetic beads (Miltenyi Biotec), cultured for 6 days in mo-DC differentiation medium containing GM-CSF and IL-4 (130-094-812; Miltenyi Biotec). AMO1 and NCI-H929 cells lines, as well as patient MM cells, were stained with CellTrace™ Far Red (ThermoFisher Scientific), cultured with or without BTZ for 16 h, and then incubated in 48-well plates for 4 h at 1:1 ratio with CellTrace™ CFSE stained Mo-DCs. Cells were then collected, and phagocytosis analysis was performed by flow cytometry and confocal microscopy. Analagous phagocytosis experiments were performed using 5TGM1 murine multiple myeloma and JAWSII cell line that was used as source of immature murine DCs.
as §1

The test system of assay [3] is 5TGM1 tumors. Put plainly: In vivo tumor growth analysis. Set-up: species or system mouse. On the procedure:
6-week old female immunodeficient NOD.CB17-Prkdcscid/NCrCrl (NOD/SCID) mice (Charles River) and immunocompetent C57BL/KaLwRijHsd (Envigo) mice were housed in an animal facility at the Dana-Farber Cancer Institute (DFCI). All experiments were performed after approval by the Animal Ethics Committee of the DFCI and performed using institutional guidelines.
To assess the effect of BTZ in the absence of an immune system, NOD/SCID mice were subcutaneously injected with 1×10^6 5TGM1 WT cells in a 1:1 ratio with Matrigel® (Corning); to assess BTZ in an immunocompetent host, C57BL/KaLwRijHsd mice were injected with 1×10^6 5TGM1 either WT or calrKO in the same ratio with Matrigel®. When tumor became measurable, mice (5/group) were randomized to receive either PBS or BTZ administered intra peritoneally (i.p.) 0.5 mg/kg twice/week for 2 weeks. Tumor sizes were measured and mice were sacrificed when tumors reached 2 cm in diameter or ulceration or major compromise in quality of life. A parallel experiment was performed to allow for tumor harvesting after two injections i.p. of BTZ for RNA-seq analysis, as detailed below.
6-week old female immunodeficient NOD.CB17-Prkdcscid/NCrCrl (NOD/SCID) (Charles River) and immunocompetent C57BL/KaLwRijHsd (Envigo) mice were housed in the animal facility at DFCI. All experiments were performed after approval by the Animal Ethics Committee of the DFCI and performed using institutional guidelines.
NOD/SCID and C57BL/KaLwRijHsd mice were subcutaneously (sc) injected with 1×10^6 5TGM1 either WT or Calr^KO cells in PBS. When tumor became measurable, mice were randomized to receive either PBS or BTZ administered intra peritoneally (i.p.) 0.5 mg/kg twice/week for 2 weeks. Tumor sizes were measured as previously described (46), and mice were sacrificed when tumors reached 2 cm in diameter or ulceration or major compromise in quality of life. A parallel experiment was performed to allow for tumor harvesting after two injections ip of BTZ for RNA-seq analysis, as detailed below. For BTZ and STING agonist combination studies, C57BL/KaLwRijHsd (n=5/group) and SCID/NOD (n=6/group) mice bearing 5TGM1 WT and C57BL/KaLwRijHsd mice (n=5/group) bearing 5TGM1 Sting^KO tumors were randomized to receive: PBS, BTZ (0.375 mg/kg twice a week for 2 weeks, i.p.), ADU-S100 (100 μg) administered in the peritumoral area (day 1 and 2), or a combination. Tumor sizes were measured as described above. A parallel experiment in C57BL/KaLwRijHsd mice was performed to allow for tumor harvesting after one administration of either BTZ or ADU-S100. Tumors were fixed in 10% formalin for 24 h, and then maintained in 70% ethanol prior to paraffin embedding and processing for IHC to detect CD3 (#nb600 Ab, Novus Bio).

The test system of assay [4] is STC1. Kind of assay: Western blot of STC1. It is filed as cell-based.

“Also recorded” adds a separate entry of the source.

Turning to `CC(C)C[C@H](NC(=O)[C@H](Cc1ccccc1)NC(=O)c1cnccn1)B(O)O` [BTZ, bortezomib], the “phagocytosis of BTZ-treated MM cells by DCs” value in assay [1] (5TGM1 Calr^KO cells) is on record as “calreticulin is necessary for induction of ICD by BTZ; also recorded: abrogated in vitro when DCs were co-cultured with CRT^KOMM cells; also recorded: inhibited”; in assay [1] (5TGM1 WT, BTZ 16 h, then 4 h co-culture with mDCs), “engulfed by monocyte-derived DCs after 4 h of co-culture”. Besides, the “phagocytosis of BTZ-treated pdMM cells by DCs” value in assay [2] is given as “dose-dependent increase in phagocytosis of BTZ-treated pdMM cells by DCs”. Further, the tumor growth entry in assay [3] (5TGM1 Calr^KO tumors in immunocompetent mice, BTZ 0.5 mg/kg twice/week for 2 weeks) is reported as “antagonized in CALR^KO tumors; also recorded: abrogated in mice bearing CRT^KO tumors; also recorded: abrogated in immunocompetent mice bearing 5TGM1 Calr^KO tumors”; in assay [3] (5TGM1 WT in immunocompetent C57BL/KaLwRij mice, BTZ 0.5 mg/kg twice/week for 2 weeks i.p.) it was “induces tumor regression in the presence of the immune system; also recorded: more potent 5TGM1 tumor cell shrinkage in immunocompetent hosts; also recorded: inhibited growth of 5TGM1 WT cells engrafted in immunocompetent (C57BL/KaLwRij) mice (FIG. 19A) to a greater extent than when these cells were engrafted in immunodeficient hosts; also recorded: induces ICD in a syngeneic murine model of MM”; in assay [3] (5TGM1 WT in immunodeficient SCID/NOD mice, BTZ 0.5 mg/kg twice/week for 2 weeks i.p.), “can efficiently delay tumor growth in immunodeficient mice”. In addition, in assay [3] (5TGM1 Sting^KO tumors in immunocompetent mice), the anti-tumor activity entry is “significantly abrogated against tumors lacking Sting; also recorded: significantly reduced in vivo against multiple myeloma tumors lacking Sting”. The anti-tumor effects result in assay [3] (5TGM1 WT in immunodeficient NOD/SCID mice, BTZ 0.375 mg/kg, ADU-S100 100 ug day 1 and 2) was “abrogated the anti-tumor effects”. Moreover, the STC1 protein levels entry in assay [4] (GABARAP^KO cells after BTZ) is “intracellular levels of STC1 are even higher after BTZ treatment”; in assay [4] (WT cells (5TGM1, AMO1) after BTZ) it was “STC1 protein levels decrease in WT cells after BTZ treatment”.
